In patent US10328075B2, “Method of treatment and compounds for use therein” (Baker Heart and Diabetes Institute, priority 2015, dated 2019):

Assays:
Format in all cases: cell-based
[1] = system: mFpr1, mFpr2 expression in AMCF; assay: Fpr gene expression in adult mouse cardiac fibroblasts (real-time PCR); conditions: 10 μM, 24 h incubation, TGF-β
Description: AMCFs were starved overnight in serum-free DMEM prior to incubation with the pro-fibrotic stimulus transforming growth factor TGF-β (10 ng/ml) for 24 h at 37° C. FPR agonists Cmpd17b, Cmpd43 (both 10 μM) or vehicle were present 30 min prior to TGF-β. At the end of 24 h stimulation, RNA was extracted and real-time PCR performed to determine the relative gene expression of CTGF and IL-1β, relative to housekeeping gene 18S, as described previously (5). Relative gene expression of mouse Fprs (mFpr1 and mFpr2, expressed as the threshold cycle number Ct subtracted from the maximum cycle number utilized, 40) was also determined at the end of 24 h stimulation.

[2] = system: adult mouse cardiac fibroblasts; assay: TGF-β stimulation of adult mouse cardiac fibroblasts, CTGF and IL-1β expression; conditions: 10 μM, 24 h TGF-β
Description: Isolation and culture of primary rat cardiomyocytes and mouse cardiac fibroblasts: All materials used for cell isolation were of tissue culture grade. Isolation of primary neonatal rat cardiac cardiomyocytes (NRCM) and adult mouse cardiac fibroblasts (AMCF) was performed by serial enzymatic digestion, as previously described (Irvine et al 2012 & Irvine et al. 3) NRCM were plated onto either 12-well tissue culture plates (for simulated ischemia-reperfusion, via hypoxia-reoxygenation, H-R) or 60 mm tissue culture dishes (for gene expression) at a density of 1.3×10^5 cells/cm^2, in the presence of 1% 5-bromo-2′-deoxyuridine. AMCF (passage #3) were seeded onto 60 mm tissue culture dishes at 9.5×10^4 cells/cm^2 and allowed to grow to 80% confluence prior to study. […] At the end of hypoxia, Kreb's buffer was replaced with fresh, sterile-filtered Kreb's buffer, in the presence or absence of FPR agonists Cmpd17b, Cmpd43 (both 1 μM or vehicle, and NRCM were subjected to 48 h reoxygenation at 37° C. At the end of 48 h reoxygenation, NRCM supernatant was collected for assessment of cardiomyocyte injury. Cardiomyocyte release of cTnI was determined using a commercially available, high-sensitivity rat cTnI ELISA kit (Life Diagnostic Inc.) as per the manufacturer's instructions. Separate NRVM on 60 mm dishes were incubated for 48 h at 37° C. in serum-free DMEM, in the presence or absence of FPR agonists Cmpd17b, Cmpd43 (both 1 μM) or vehicle. At the end of 48 h, RNA was extracted and real-time PCR performed (as described previously (Huynh et al. 2012)), to determine the relative gene expression of rat Fprs (rFpr1, rFpr2 and rFpr3, expressed as the threshold cycle number Ct subtracted from the maximum cycle number utilized, 40). […]
Cardiomyocytes injury responses in vitro: Neonatal rat cardiomyocytes and adult mouse cardiofibroblasts were isolated and cultured as described (online Supplement). […] Cardiomyocyte injury was assessed by measurement of cardiac cTnI in cardiomyocyte supernatant. […]

[3] = system: rFpr1, rFpr2 expression in NRCM; assay: Fpr gene expression in neonatal rat cardiomyocytes (real-time PCR); conditions: 1 μM, 48 h incubation
Description: Isolation and culture of primary rat cardiomyocytes and mouse cardiac fibroblasts: All materials used for cell isolation were of tissue culture grade. Isolation of primary neonatal rat cardiac cardiomyocytes (NRCM) and adult mouse cardiac fibroblasts (AMCF) was performed by serial enzymatic digestion, as previously described (Irvine et al 2012 & Irvine et al. 3) NRCM were plated onto either 12-well tissue culture plates (for simulated ischemia-reperfusion, via hypoxia-reoxygenation, H-R) or 60 mm tissue culture dishes (for gene expression) at a density of 1.3×10^5 cells/cm^2, in the presence of 1% 5-bromo-2′-deoxyuridine. AMCF (passage #3) were seeded onto 60 mm tissue culture dishes at 9.5×10^4 cells/cm^2 and allowed to grow to 80% confluence prior to study. Following 48 h in serum-free DMEM, NRCM in 12-well tissue plates were subjected to simulated ischemia, induced by replacement of culture media with sterile-filtered Kreb's buffer (118 mM NaCl, 4.8 mM KCl, 1.2 mM KH2PO4, 1.2 mM MgSO4, 25 mM NaHCO3, […], 11.0 mM glucose, 1.75 mM CaCl2) prior to incubation for 6 h at 37° C. under hypoxia (95% N2-5% CO2, using a hypoxia chamber, QNA International, Melbourne, Australia). At the end of hypoxia, Kreb's buffer was replaced with fresh, sterile-filtered Kreb's buffer, in the presence or absence of FPR agonists Cmpd17b, Cmpd43 (both 1 μM or vehicle, and NRCM were subjected to 48 h reoxygenation at 37° C. At the end of 48 h reoxygenation, NRCM supernatant was collected for assessment of cardiomyocyte injury. Cardiomyocyte release of cTnI was determined using a commercially available, high-sensitivity rat cTnI ELISA kit (Life Diagnostic Inc.) as per the manufacturer's instructions. Separate NRVM on 60 mm dishes were incubated for 48 h at 37° C. in serum-free DMEM, in the presence or absence of FPR agonists Cmpd17b, Cmpd43 (both 1 μM) or vehicle. At the end of 48 h, RNA was extracted and real-time PCR performed (as described previously (Huynh et al. 2012)), to determine the relative gene expression of rat Fprs (rFpr1, rFpr2 and rFpr3, expressed as the threshold cycle number Ct subtracted from the maximum cycle number utilized, 40).

Row | Compound | AMCF expression of mFpr1 [1] | AMCF expression of mFpr2 [1] | TGF-β-induced pro-inflammatory IL-1β response in cardiofibroblasts [2] | NRCM expression of rFpr1 [3] | NRCM expression of rFpr2 [3] | Pro-fibrotic CTGF response to TGF-β in cardiofibroblasts [2]
1 | COc1cccc(Cc2cc(C)nn(C(C)C(=O)Nc3ccc(Br)cc3)c2=O)c1 (stereo not shown) [BIDI-001, N-(4-bromophenyl)-2-[5-(3-methoxybenzyl)-3-methyl-6-oxo-6H-pyridazin-1-yl]-propionamide] | did not significantly influence | did not significantly influence | not | did not significantly influence | did not significantly influence | –
2 | CC(C)C1C(NC(=O)Nc2ccc(Cl)cc2)C(=O)N(c2ccccc2)N1C (stereo not shown) [BIDI-002] | restored | – | tended to persist | without impact | tended to reduce | remained significant
